Reference: PubChem BioAssay (NCI)
Values joined by “and” are separate entries in the source; they are usually repeats but may differ in a detail not shown here. Equal entries are not always repeated.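 Interpolation was linear, between the two tested concentrations surrounding the appropriate level; five concentrations were tested over 48 hours in 96-well plates. At the GI50, growth is halved. Definition used: TGI = concentration required for complete inhibition of growth.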

Assays:
Experiment in all cases: NCI tumour cell line growth inhibition, 48 h
HCT-116 colon = system: HCT-116 colon
SF-539 CNS = system: SF-539 CNS
MDA-MB-435 = system: MDA-MB-435
NCI-H226 lung = system: NCI-H226 lung
OVCAR-3 ovarian = system: OVCAR-3 ovarian
NCI-H522 lung = system: NCI-H522 lung
UACC-257 melanoma = system: UACC-257 melanoma
HOP-62 NSCLC = system: HOP-62 NSCLC
LXFL 529 NSCLC = system: LXFL 529 NSCLC

Row | SMILES | GI50 (HCT-116 colon) | TGI (HCT-116 colon) | GI50 (SF-539 CNS) | TGI (SF-539 CNS) | GI50 (MDA-MB-435) | TGI (MDA-MB-435) | GI50 (NCI-H226 lung) | TGI (NCI-H226 lung) | GI50 (OVCAR-3 ovarian) | TGI (OVCAR-3 ovarian) | GI50 (NCI-H522 lung) | TGI (NCI-H522 lung) | GI50 (UACC-257 melanoma) | TGI (UACC-257 melanoma) | GI50 (HOP-62 NSCLC) | TGI (HOP-62 NSCLC) | GI50 (LXFL 529 NSCLC) | TGI (LXFL 529 NSCLC)
1 | N/C(=N\c1nc2ccccc2s1)NC(=NC1CCCCC1)NC1CCCCC1 | 1.43 µM | 3.01 µM | 1.66 µM | 3.12 µM | 1.44 µM | 2.8 µM | 1.67 µM | 3.23 µM | 1.68 µM | 3.17 µM | 1.89 µM | 4.22 µM | 1.76 µM | 3.65 µM | 1.78 µM | 3.99 µM | – | –
2 | Nc1n[nH]c(N)c1N=Nc1ccc(O)cc1 | 18.9 µM | 89.9 µM | 13.1 µM | 36.4 µM | 17.1 µM | 59.4 µM | 17.7 µM | 67.5 µM | 22.7 µM | 69.7 µM | 24.3 µM | > 100 µM | 24.4 µM | 85.1 µM | 31.8 µM | > 100 µM | – | –
3 | Cc1cccc2c(Nc3ccc(NS(C)(=O)=O)cc3)c3ccc([N+](=O)[O-])cc3nc12 | 0.927 µM | 5.24 µM | 1.07 µM | 11.4 µM | 1.85 µM | 7.27 µM | 0.755 µM | 4.08 µM | 1.45 µM | 4.91 µM | 1.11 µM | 2.52 µM | 1.53 µM | 4.6 µM | 0.373 µM | 4.87 µM | – | –
4 | N.N.N.N.N.O=S(=O)([O-])C(F)(F)F.O=S(=O)([O-])C(F)(F)F.[Os+8] | 5.37 µM | 18 µM | 4.26 µM | 16.2 µM | – | – | 2.59 µM | 8.69 µM | – | – | – | – | 22.2 µM | > 100 µM | 6.34 µM | 20 µM | 9.12 µM | 23.8 µM
5 | COc1cc2c(c(OC)c1OC)-c1c(cc3c(c1OC)OCO3)CC(C)C(C)(O)C2OC(=O)c1ccccc1 (centres undefined) | – | > 100 µM | – | > 100 µM | – | > 100 µM | – | > 100 µM | – | > 100 µM | – | > 100 µM | – | > 100 µM | – | > 100 µM | – | –
6 | C[C@@H]1COCCN1c1cc(-c2ccnn2C)c2ccnc(-c3ccn[nH]3)c2n1 | 0.159 µM and 0.228 µM | 16.3 µM and > 59 µM | 0.0704 µM and 0.142 µM | 0.547 µM and 1.23 µM | 0.0984 µM and 0.199 µM | 2.89 µM and 5 µM | 0.241 µM and 0.474 µM | – | 0.223 µM and 0.406 µM | – | 0.172 µM and 0.528 µM | – | 0.264 µM and 0.721 µM | 2.81 µM and 6.9 µM | 0.112 µM and 0.216 µM | 1.94 µM | – | –
7 | CCN(C(=O)CN1CCN(c2cc3c(cc2F)c(=O)c(C(=O)O)cn3CC)CC1)c1nc(-c2ccccc2)cs1 | 0.378 µM | > 100 µM | 0.337 µM | > 100 µM | 0.306 µM | > 100 µM | 0.477 µM | > 100 µM | 0.475 µM | > 100 µM | 0.259 µM | 0.813 µM | 0.307 µM | 1.55 µM | 0.345 µM | > 100 µM | – | –
8 | O=C1/C(=C/c2cccc(Br)c2)COc2ccc(O)c(O)c21 | 1.08 µM | 2.47 µM | 1.58 µM | 3.45 µM | 1.23 µM | 2.76 µM | 2.4 µM | 6.81 µM | 0.675 µM | 2.07 µM | 0.175 µM | 0.361 µM | 1.54 µM | 3.03 µM | 1.84 µM | 3.74 µM | – | –
9 | CCSc1nc(N)c(C#N)c(-c2ccco2)c1C#N | 26.8 µM | > 100 µM | 23.3 µM | 69.3 µM | 25.2 µM | 66.1 µM | 29.9 µM | > 100 µM | 91.3 µM | > 100 µM | 91.5 µM | > 100 µM | 31.7 µM | 80.2 µM | 80.9 µM | > 100 µM | – | –
10 | Brc1cccc(-c2cc(-c3ccc4nccnc4c3)[nH]n2)c1 | 0.603 µM | > 84.2 µM | 0.764 µM | 3.28 µM | 0.0743 µM | 0.412 µM | – | > 250 µM | 0.485 µM | – | 0.412 µM | > 250 µM | – | > 250 µM | 1.02 µM | > 250 µM | – | –
11 | Nc1ncccc1-c1nc2ccc(-c3ccccc3)nc2n1-c1ccc(C2(N)CCC2)cc1 | 1.43 µM | 2.91 µM | 0.978 µM | 2.52 µM | 1.35 µM | 2.88 µM | 5.02 µM | 23.7 µM | 0.353 µM | 10.6 µM | 1.53 µM | 3.47 µM | 1.28 µM | 2.73 µM | 1.9 µM | 8.48 µM | – | –
12 | CC1=C(C(=O)Nc2ccc(F)c(Cl)c2)C(c2ccccc2O)NC(=O)N1 (centres undefined) | 51.7 µM | > 100 µM | > 100 µM | > 100 µM | > 100 µM | > 100 µM | > 100 µM | > 100 µM | 65.4 µM | > 100 µM | 61.9 µM | > 100 µM | > 100 µM | > 100 µM | > 100 µM | > 100 µM | – | –
13 | CN1CCN(c2cc3nc4ccccc4n(-c4ccc(Cl)cc4)c-3cc2=N)CC1 | 22.2 µM | 57.2 µM | 26.6 µM | 73.7 µM | 17.5 µM | 32.6 µM | 60.7 µM | > 100 µM | 2.78 µM | 16.7 µM | 21.5 µM | 52.6 µM | 19.2 µM | 39.2 µM | 23.3 µM | 65 µM | – | –
14 | NS(=O)(=O)c1cccc(-c2ccc3c(NC(=O)C4CC4)n[nH]c3c2)c1 | > 16.9 µM | > 25 µM | 14.3 µM | > 25 µM | 5.31 µM | 15.3 µM | > 15.1 µM | > 25 µM | 6.71 µM | > 17.6 µM | 5.32 µM | > 19 µM | > 18.1 µM | > 25 µM | > 14.2 µM | 24.7 µM | – | –
15 | O=S(=O)(NC1=NCCN1C(=S)SN1CCn2c1nsc2=S)c1cccc(OC(F)(F)F)c1 | 10.2 µM | 21.9 µM | 19.8 µM | 37.7 µM | 5.86 µM | 22.1 µM | 16.2 µM | 31.7 µM | 5.07 µM | 16.4 µM | 6.85 µM | 28.3 µM | 17.3 µM | 38.1 µM | 8 µM | 20.3 µM | – | –
16 | O=C(O)[C@@H](NS(=O)(=O)c1ccc2ccccc2c1)c1ccccc1 | – | – | – | > 100 µM | – | – | – | – | – | – | – | > 100 µM | – | > 100 µM | – | – | – | > 100 µM
17 | CCN(CC)C(=S)SSC(=S)N(CC)CC | 11.4 µM | 24.9 µM | 18.8 µM and 17.9 µM | 38.6 µM and 37.1 µM | 15.6 µM and 18.7 µM | 43.5 µM and 53.3 µM | 27.6 µM and 82 µM | > 58.7 µM and 307 µM | 15.1 µM and 15.3 µM | 32.5 µM and 29.4 µM | 11.6 µM and 18.3 µM | 27.9 µM and 38.4 µM | 35.4 µM and 34.3 µM | > 88.2 µM and 148 µM | 33.9 µM and 33.7 µM | > 67.9 µM and 112 µM | – | –
18 | C=C1C(=O)O[C@H]2[C@H]1CC/C(CNC(=O)/C=C/c1ccccc1)=C\CC[C@@]1(C)O[C@@H]21 | 0.465 µM | 1.75 µM | 0.964 µM | 2.37 µM | 1.35 µM | 6.41 µM | 2.5 µM | 6.59 µM | 0.558 µM | 1.83 µM | 0.357 µM | 1.71 µM | 1.53 µM | 3.99 µM | 3.37 µM | 14 µM | – | –
19 | COc1ccc(-c2onc(-c3c(C)cc(C)cc3C)c2C2=NCCN2)cc1 | – | > 100 µM | – | 44.1 µM | – | – | – | 89.8 µM | – | – | – | – | – | 46.1 µM | – | > 100 µM | – | > 100 µM
20 | O=c1c(O)cccn1CCCN(CCCn1cccc(O)c1=O)CCn1cccc(O)c1=O | 2.85 µM | > 100 µM | 3.12 µM | > 100 µM | 3.46 µM | > 100 µM | 2.27 µM | 61.8 µM | 3.39 µM | > 100 µM | 7.35 µM | > 100 µM | 3.42 µM | 22.4 µM | 4.35 µM | > 100 µM | – | –
21 | NNc1c2ccccc2nc2ccccc12 | 3.99 µM | 17.6 µM | 3.73 µM | 22.9 µM | 5.08 µM | 23.4 µM | 4.26 µM | 43 µM | 5.85 µM | 27.3 µM | 2.59 µM | 14.4 µM | 4.06 µM | 36.2 µM | 5.56 µM | 79 µM | – | –
22 | CCOC(=O)C1=C(C)N2C(=NC3=C(CCC/C3=C\c3ccc(Cl)cc3)C2c2ccc(Cl)cc2)S1 (centres undefined) | 1.4 µM | 2.7 µM | 3.88 µM | > 100 µM | 2.93 µM | 14.2 µM | 3.04 µM | 8.8 µM | 2.36 µM | 5.61 µM | 3.84 µM | 17.8 µM | 2.05 µM | 5.18 µM | 2.55 µM | 5.38 µM | – | –
23 | O=c1c(-c2ccccc2)coc2cc(OC/C(=N/O)c3ccc(F)cc3)ccc12 | 16 µM | 47.7 µM | 15.2 µM | 29.6 µM | 20.9 µM | 97.7 µM | 25.1 µM | 77.7 µM | 19.7 µM | 47.4 µM | 14.5 µM | 46 µM | 10.2 µM | 27.3 µM | 27 µM | 53.5 µM | – | –
24 | Nc1n[nH]c2ccc([C@@H]3Nc4cc5[nH]ncc5cc4[C@H]4C5CCC(C5)[C@@H]34)cc12 (some centres undefined) | 0.416 µM | > 100 µM | 0.269 µM | 3.17 µM | 0.3 µM | 6.85 µM | 1.17 µM | 46.2 µM | 0.381 µM | 13.3 µM | 0.396 µM | > 45.6 µM | 14.9 µM | > 78.4 µM | 0.689 µM | 98 µM | – | –
